Measured values as given in patent US9872858B2, “Treatment of degenerations and light-induced damage to the retina” (BIOCODEX, priority 2014, dated 2018).
Read-outs that look alike come from different tables or passages of the source.

How the values were obtained:
[1] = Animals behavior and body weight; format: in vivo, Sprague-Dawley albino male rats; settings: etifoxine 12.5-50 mg/kg i.p. once a day D-7 to D0
Excerpt: The rats were kept under observation for 3 weeks after their arrival for acclimatization. Meanwhile the animals were observed daily for verifying the absence of a disease.
II.1. Animals Behavior and Body Weight

[2] = tested on: blue light-induced retinal degenerations or damages in rats; test: Scotopic electroretinogram (amplitude of wave a) after blue light-induced retinal degeneration; format: in vivo, Sprague-Dawley albino male rats
Procedure: (§1) This animal model is particularly representative, in addition to light-induced retinal damage, of age-related macular degeneration (AMD) and retinitis pigmentosa (see e.g Feng et al. (2012) International Journal of Ophthalmology 5:151-157).
72 Sprague-Dawley albino male rats obtained from Janvier were used for the study. When received, the rats were approximately 7 weeks old and weighed 180-200 g,
(§2) Induction was performed by exposure during 6 hours to a blue fluorescent light of 400 nm-540 nm wavelength in individual cages. The rats were kept in the dark for 36 hours prior to the induction and 24 hours after the induction, before returning to normal lighting conditions.
A scotopic electroretinogram (ERG) was performed by using the electrophysiological RETI-animal® (Roland Consult) system before the first administration (base) then on days 7 and 14 on both eyes of animals accustomed to the darkness. The animals were anesthetized with an intramuscular injection of a mixture of ketamine/xylazine. 15 minutes before the measurement, 1 drop of Mydriatictum® (0.5% tropicamide) was instilled to induce dilatation of the pupil. The amplitudes of wave a and wave b were measured for each eye and expressed as a percentage of the base amplitudes.
The ERG parameters are: • Gansfeld Q450C • Color: maximum white • Maximum intensity: 2.6 cd.s/m^2 (0 dB); duration: 0.24 ms; number of flashes: 1 • Filter: 50 Hz • Impedance threshold: 90 kΩ
A two-factor ANOVA test was applied to the average amplitudes of the wave a of both eyes for each measurement point. The effect of the products was determined using the Turkey's multiple comparison test; each group was compared to other groups. Differences were considered significant for p values less than 0.05.
Electroretinograms (ERG) allow to measure the amplitude of wave a, which results from the photo-activated hyperpolarization of photoreceptors. Thus, a reduction of the amplitude of wave a is an indicator of a retinal damage or degeneration associated with exposure to blue light.

[3] = tested on: blue light-induced retinal degenerations or damages in rats; test: Thickness of the outer nuclear layer (histology, AUC) after blue light-induced retinal degeneration; format: in vivo, Sprague-Dawley albino male rats
Procedure: as §1, with “The inventors have studied the protective effect of etifoxine in respect of the blue light-induced retinal degenerations or damages in rats. This” for “This”
as §2
After ERG (day 14), the animals were euthanized with an overdose of pentobarbital, according to European recommendations, both eyes were enucleated, fixed with Bouin Hollande solution and then included in paraffin. Sections of 5 to 7 μm of thickness were made along the vertical meridian then stained using Masson's trichrome. The vertical meridian includes the optic nerve. […] The area under the curve (AUC) was then calculated for each retina.
A one-factor ANOVA test was applied to the average AUCs of the thickness of the outer nuclear layer. The effect of the products was determined using a Turkey's multiple comparison test; each treated group was compared to vehicle group. Differences were considered significant for p values less than 0.05.
To determine if the treatment allows to preserve the structure of photoreceptors, the thickness of the outer nuclear layer was evaluated 14 days other exposure to blue light. The area under the curve (AUC) of the thickness of the outer nuclear layer was calculated for each eye and both AUCs were averaged for each rat.

[4] = tested on: light-induced degeneration of the retina in rats; settings: intraperitoneal injection (Ranchon et al. 2001); cited from earlier work
[5] = tested on: patients suffering from neovascular (exudative) AMD; settings: cited from earlier work

CCNC1=Nc2ccc(Cl)cc2C(C)(c2ccccc2)O1.Cl (centres unmarked) [EFX, 6-chloro-2-ethylamino-4-methyl-4-phenyl-4H-[3,1]benzoxazine hydrochloride]
Clinical signs after administration [1]: No unexpected clinical signs
Protection of amplitude of wave a compared to the vehicle group ([2]; 12.5, 25 and 50 mg/kg, day 7 p<0.0001 all doses, day 14 p=0,016 for 12.5 mg/kg, p<0.0001 for 25 and 50 mg/kg): significant dose-dependent protection
Amplitude of wave a (mean ± standard deviation), Day 7 ([2]; EFX 12.5 mg/kg i.p. once a day D-7 to D0, 7 days after induction): 136 ± 89 μV
Amplitude of wave a (mean ± standard deviation), Day 14 ([2]; EFX 12.5 mg/kg i.p. once a day D-7 to D0, 14 days after induction): 134 ± 135 μV
Amplitude of wave a (mean ± standard deviation), Day 7 ([2]; EFX 25 mg/kg i.p. once a day D-7 to D0, 7 days after induction): 210 ± 116 μV
Amplitude of wave a (mean ± standard deviation), Day 7 ([2]; EFX 50 mg/kg i.p. once a day D-7 to D0, 7 days after induction): 260 ± 87 μV
Thickness of the outer nuclear layer (AUC, mean of both eyes ± standard deviation) ([3]; EFX 12.5 mg/kg i.p. once a day D-7 to D0, 14 days after induction, p = 0.04 vs vehicle group): 170 ± 72 (p = 0.04 comparing to vehicle group) μm × mm
Thickness of the outer nuclear layer (AUC, mean of both eyes ± standard deviation) ([3]; EFX 25 mg/kg i.p. once a day D-7 to D0, 14 days after induction, p = 0.0002 vs vehicle group): 200 ± 73 (p = 0.0002 comparing to vehicle group) μm × mm
Thickness of the outer nuclear layer (AUC, mean of both eyes ± standard deviation) ([3]; EFX 50 mg/kg i.p. once a day D-7 to D0, 14 days after induction, p = 0.035 vs vehicle group): 172 ± 61 (p = 0.035 comparing to vehicle group) μm × mm
Protection of the outer nuclear layer from damages or degenerations induced by blue light, compared to the vehicle ([3]; regardless of the dose (12.5, 25, 50 mg/kg), 14 days after induction): protects significantly

CC(C)(C)[N+]([O-])=Cc1ccccc1 [PBN, Phenyl-N-tert-butylnitrone]
Action in light-induced degeneration of the retina [4]: protective action
Amplitude of wave a (mean ± standard deviation), Day 7 ([2]; PBN 50 mg/kg i.p. at D0, 0.5 h before, 2 h and 4 h during and just after induction, 7 days after induction): 334 ± 137 μV
Average relative amplitude of wave a, Day 7 ([2]; PBN 50 mg/kg i.p. at D0 around induction, 7 days after induction, percentage of base amplitude): 71 ± 29%
Amplitude of wave a (mean ± standard deviation), Day 14 ([2]; PBN 50 mg/kg i.p. at D0 around induction, 14 days after induction): 301 ± 187 μV
Average relative amplitude of wave a, Day 14 ([2]; PBN 50 mg/kg i.p. at D0 around induction, 14 days after induction, percentage of base amplitude): 62 ± 38%
Amplitudes of wave a compared to the NaCl 0.9% group ([2]; PBN 50 mg/kg, days 7 and 14, p<0.0001): significantly (p<0.0001) higher
Thickness of the outer nuclear layer (AUC, mean of both eyes ± standard deviation) ([3]; PBN 50 mg/kg i.p. at D0 around induction, 14 days after induction, p < 0.0001 vs NaCl 0.9% group): 247 ± 44 (p < 0.0001 comparing to NaCl 0.9% group) μm × mm
Protection of the outer nuclear layer from damages or degenerations induced by blue light ([3]; PBN 50 mg/kg, positive control, in contrast to 0.9% NaCl): protects the outer nuclear layer

ranibizumab: a Fab fragment of an anti-VEGF-A monoclonal antibody
Visual acuity improvement ([5]; 0.3 mg monthly intravitreal injections): +8.1 letters
Visual acuity improvement ([5]; 0.5 mg monthly intravitreal injections): +10.7 letters
